{"source": "patent US5968920A", "about": "“Compounds having a benzisoselen-azoline and -azine structure, method for preparing same and therapeutic uses thereof” (Oxis Isle of Man, Limited, priority 1994, dated 1999)", "key": {"[1]": {"system": "endothelial cells", "assay": "Absence of toxicity in a culture of endothelial cells in vitro (MTT)", "assay_type": "cell-based, human", "details": "no more than 10 μM, 24 or 48 hours", "protocol": "Human endothelial cells were cultivated under the same conditions as those described for Example 18, in 96-hole plates.\nWhen the cells were near confluence, they were incubated or not (control) for 24 or 48 hours in the presence of BXT-51056 or BXT-51072 incorporated into the culture medium at a concentration of no more than 10 μM. After 24 or 48 hours, the cells were rinsed three times with a PBS buffer and the viability of the cells was measured using the bromide of 3-(4,5-dimethylthiazol-2-yl)-2,5-diphenyl-2H-tetrazolium (MTT)."}, "[2]": {"system": "endothelial cells", "assay": "Protection of endothelial cells against hydrogen peroxide (NO production after bradykinin)", "assay_type": "cell-based", "details": "Homo sapiens, Endothelial cell; compound 1 μM; hydrogen peroxide 100 μM; bradykinin 100 nM; read-out: recovery of the normal response to bradykinin (NO production)", "protocol": "Human endothelial cells were cultivated at 37° C. in 6-hole plates or Petri dishes (35 mm diameter) in an atmosphere of saturated humidity constituted by a gaseous mixture of 95% air and 5% of CO2. The culture medium was constituted by a M 199 medium, pH=7.4, containing 20% of foetal calf serum, 2 mM of L-glutamine, 100 U/ml of penicillin and 100 μg/ml of streptomycin.\nWhen the cells were confluent, they were incubated in the presence or absence (control) of a compound with general structure I in culture medium at a concentration of between 1 and 10 μM, all other conditions being the same. After washing the cells three successive times with a PBS buffer, they were incubated in the presence or absence (control) of hydrogen peroxide, 500 or 100 μM, in the reaction medium. The cells were then washed three times with PBS buffer. They were then stained using the May-Grunwald/Giemsa procedure which caused the nucleus to stain purple and the cytoplasm, light violet, or they were used to measure their ability to produce nitric oxide NO. (EDRF). The production of NO. by endothelial cells was made using a NO. electrode, after stimulation with bradykinin, 100 nM, using the procedure described by H. Tsukahara et al., (Biochem. and Biophys. Res. Comm., (1993), 193, pp 722-729).\nTreatment with 100 μM hydrogen peroxide had no significant effect on cellular density. […]"}, "[3]": {"assay": "Glutathione peroxidase activity, t-BuOOH as hydroperoxide", "assay_type": "biochemical", "details": "compound 20 μM, pH = 7.3, 37° C., [GSH] = 2 mM", "protocol": "(§1) To 1.5 ml of HEPES buffer, 50 mM, pH=7.3, containing 0.2 mM of DTPA, 0.144 mM of NADPH, 2.2 mM of reduced glutathione and 1.1 U/ml of glutathione disulfide reductase, pre-equilibrated for 2 minutes at 37° C., 100 μl of an ethanolic mother solution of the compound to be tested or 100 μl of absolute ethanol (blank) was added. Each compound was tested at a final concentration of 20 μM.\n(§2) Subsequently, 50 μl of the following was added:\ntertiobutyl hydroperoxide (t-BuOOH), 6.6 mM in ultrapure water;\n(§3) or the hydroperoxide of linoleic acid (18:2-OOH) prepared using soya lipoxygenase (see M. O. Funk et al., Lipids, (1976), 11, pp 113-117), 3.3 mM in a water/methanol mixture, 85/15 (V/V). The glutathione peroxidase activity was measured at 37° C. by measuring the reduction in absorbance at 340 nm over 5 minutes. The initial enzymatic rate or activity was proportional to the slope of the plot of absorbance against time.\n(§4) They are expressed in nmoles of hydroperoxide reduced per minute."}, "[4]": {"assay": "Glutathione peroxidase activity, hydrogen peroxide", "assay_type": "biochemical", "details": "compound 20 μM, pH = 7.3, 37° C., [GSH] = 2 mM", "protocol": "as §1, §2\nor hydrogen peroxide (H2 O2), 1.6 mM in ultrapure water;\nas §3, §4"}, "[5]": {"assay": "Glutathione peroxidase activity, linoleic acid hydroperoxide", "assay_type": "biochemical", "details": "compound 20 μM, pH = 7.3, 37° C., [GSH] = 2 mM", "protocol": "as §1, §2, §3, §4"}, "[6]": {"system": "endothelial cells", "assay": "Endothelial changes induced by PMN and TNF-α (von Willebrandt factor release)", "assay_type": "cell-based, human", "details": "BXT compounds 10 μM, pentoxifylline 50 μM; TNF-α 1 ng/ml; 3.5 h", "protocol": "(§5) Human endothelial cells were cultivated under the same conditions as those described for Example 18.\n(§6) When the cells were near confluence, they were incubated for one hour in the presence or absence of the following compounds: BXT-51072, BXT-51077 or pentoxifylline. Compounds BXT-51072 and BXT-51077, each at 10 μM, and the pentoxifylline, at 50 μM, were incorporated in culture medium containing 2% of foetal calf serum, all other conditions being the same. […] Myeloperoxidase (MPO), an enzyme specifically contained in PMNs, was then measured in the cell lysates obtained to evaluate adhesion of the PMNs on the endothelial cells. The von Willebrandt factor (vWf) liberated in the culture medium by the endothelial cells was measured after three and a half hours of incubation, as a label of the changes in the cells.\n(§7) Incubation of the endothelial cells in the presence of PMN and TNF-α led to a very significant increase in the quantity of MPO and vWf with respect to the respective controls (PMN alone, and endothelial cells alone respectively), meaning the adhesion of activated PMNs to the endothelial cells and changes in the latter.\n(§8) They are expressed as the percentage inhibition by referring the MPO and vWf measurements to the respective concentrations of MPO and vWf determined when the endothelial cells were incubated with TNF-α and PMNs."}, "[7]": {"system": "interleukin 8 (IL-8)", "assay": "Endothelial production of interleukin 8 induced by TNF-α", "assay_type": "cell-based, human", "details": "4 h", "protocol": "as §5\nWhen the cells were near confluence, they were incubated for one hour in the presence or absence of the following compounds: BXT-51072, BXT-51077 or ebselen. Each of these compounds was incorporated into culture medium containing 2% of foetal calf serum at 10 μM, all other conditions being the same. […] After four hours of incubation, the interleukin 8 (IL-8) in the culture medium was measured."}, "[8]": {"system": "endothelial cells", "assay": "Adhesion of PMN to endothelial cells induced by TNF-α (myeloperoxidase)", "assay_type": "cell-based, human", "details": "compound 10 μM vs pentoxifylline 50 μM; TNF-α 1 ng/ml", "protocol": "as §5, §6, §7, §8"}, "[9]": {"system": "von Willebrandt factor (vWf)", "assay": "Protection of endothelial cells against interleukin 1 (von Willebrandt factor release)", "assay_type": "cell-based", "details": "Homo sapiens, Endothelial cell, 4 h, read-out: inhibition of increase in vWf liberation induced by IL-1", "protocol": "as §5\nWhen the cells were near confluence, they were incubated for one hour in the presence or absence of the following compounds: BXT-51072, BXT-51077, each of these compounds being at 10 μM in culture medium containing 2% of foetal calf serum , all other conditions being the same. The cells were then washed three times with a PBS buffer. The cells which had not been pretreated by a compound were incubated in the presence or absence (control) of interleukin 1α (IL-1α), at 50 U/ml, in the same culture medium. […] After four hours of incubation, the von Willebrandt factor (vWf) in the culture medium was measured."}, "[10]": {"system": "endothelial cells", "assay": "Viability of endothelial cells subjected to linoleic acid hydroperoxide (MTT)", "assay_type": "cell-based, human", "details": "compound 4 μM, 1 h; 18:2-OOH 50 μM, 2 h; MTT after about twenty hours", "protocol": "Human endothelial cells were cultivated at 37° C. in multi-hole plates or Petri dishes in an atmosphere of saturated humidity constituted by a gaseous mixture of 95% air and 5% of CO2. The culture medium was constituted by a M 199 medium, pH=7.4, containing 20% of foetal calf serum, 2 mM of L-glutamine, 100 U/ml of penicillin, 100 μg/ml of streptomycin and 1% by volume of a medium supplement containing heparin and a cell growth factor.\nWhen the cells were near confluence, they were incubated for one hour in the presence or absence of one of the following compounds: BXT-51056, BXT-51072, BXT-51077, or ebelsen. Each of these compounds was incorporated at 4 μM into culture medium containing 2% of foetal calf serum, all other conditions being the same.\nAfter washing the cells three successive times with a PBS buffer, they were incubated in the presence or absence (control) of linoleic acid hydroperoxide (18:2-OOH), 50 μM, in the culture medium defined above. […] After about twenty hours, the viability of the cells was determined by measurement using the bromide of 3-(4,5-dimethylthiazol-2-yl)-2,5-diphenyl-2H-tetrazolium (MTT).\nThe results are shown in FIG. 1, expressed as the survival percentage with respect to the control and where the reference is shown by the black rectangle."}, "[11]": {"details": "in the presence of excess glutathione GSH; cited from earlier work"}, "[12]": {"details": "prior art, Wendel 1984; Mercurio and Combs 1986; cited from earlier work"}}, "data": [{"smiles": "CC1(C)N[Se]c2ccccc21", "note": "[BXT-51056, 3,3-dimethyl-benzisoselenazoline]", "values": [{"measurement": "toxicity to endothelial cells", "setting": "[1]", "value": "not toxic to endothelial cells"}, {"measurement": "activity at 1 µM", "setting": "[2]", "value": "> 80", "unit": "%"}]}, {"smiles": "CC1(C)N[Se](=O)c2ccccc21", "note": "(centres unmarked) [BXT-51059]", "values": [{"measurement": "Glutathione peroxidase activity, t--BuOOH", "setting": "[3]", "value": "0.2 nmoles of hydroperoxide reduced/min"}, {"measurement": "Glutathione peroxidase activity, H2 O2", "setting": "[4]", "value": "0.1 nmoles of hydroperoxide reduced/min"}, {"measurement": "Glutathione peroxidase activity, 18:2-OOH", "setting": "[5]", "value": "0.8 nmoles of hydroperoxide reduced/min"}]}, {"smiles": "CC1(C)N[Se]c2ccc([N+](=O)[O-])cc21", "note": "[BXT-51075, 3,3'-dimethyl-5-nitro-benzisoselenazoline]", "values": [{"measurement": "Glutathione peroxidase activity, t--BuOOH", "setting": "[3]", "value": "3,2 nmoles of hydroperoxide reduced/min"}, {"measurement": "Glutathione peroxidase activity, H2 O2", "setting": "[4]", "value": "5,9 nmoles of hydroperoxide reduced/min"}]}, {"smiles": "COc1ccc2c(c1)C(C)(C)CN[Se]2", "note": "[BXT-51077, 4,4-dimethyl-6-methoxy-benzisoselenazine]", "values": [{"measurement": "protection of endothelial cells against the deleterious effects of activated PMNs (vWf)", "setting": "[6]", "value": "protect endothelial cells against the deleterious effects of activated PMNs"}, {"measurement": "Glutathione peroxidase activity, t--BuOOH", "setting": "[3]", "value": "35.4 nmoles of hydroperoxide reduced/min"}, {"measurement": "inhibition at 10 µM", "setting": "[7]; Homo sapiens, read-out: inhibition of IL-8 production induced by TNF-α", "value": "≥ 70", "unit": "%"}, {"measurement": "inhibition of the adhesion of PMN induced by TNF-α (MPO)", "setting": "[8]", "value": "inhibit the adhesion of PMN induced by TNF-α, much more effectively than pentoxifylline"}, {"measurement": "inhibition at 10 µM", "setting": "[9]", "value": "> 70", "unit": "%"}, {"measurement": "protection of the cells from death induced by 18:2-OOH", "setting": "[10]", "value": "significantly protected the cells from death"}]}, {"smiles": "CCN1CC(C)(C)c2ccccc2[Se]1", "note": "[BXT-51078, 4,4-dimethyl-2-ethyl-benzisoselenazine]", "values": [{"measurement": "Glutathione peroxidase activity, t--BuOOH", "setting": "[3]", "value": "16.5 nmoles of hydroperoxide reduced/min"}]}, {"smiles": "O=c1c2ccccc2[se]n1-c1ccccc1", "note": "[ebselen, 2-phenyl-3-one-benzisoselenazoline(2H)]", "values": [{"measurement": "inhibition of IL-8 production induced by TNF-α (in words)", "setting": "[7]; compound 10 μM, TNF-α 0.1, 1 or 10 ng/ml", "value": "no inhibiting effect"}, {"measurement": "water solubility of the derivative produced with excess glutathione GSH", "setting": "[11]", "value": "only very slightly soluble in water"}, {"measurement": "toxic effect", "setting": "[12]", "value": "do not appear to have a major toxic effect"}]}]}
